# Results: patent US3969518A, “Inhibiting xanthine oxidase with 3-haloalkyl substituted benzothiadiazine-1,1-dioxides” (Merck & Co., Inc., priority 1972, dated 1976)
# Biological target: xanthine oxidase (Bos taurus, UniProt P80457)
# Assay: in vitro xanthine oxidase inhibition (hypoxanthine substrate, absorbance at 292, pH 7.4 buffer; Baker et al procedure)
# Type: biochemical
# Conditions: 1 min, test compound at 2 × 10^-6 (footnote 1), hypoxanthine 6 × 10^-5 M solution, 1 minute
# Procedure: The procedure used employed the principals described in J. Pharm.
# A reference cuvette is filled with 0.05M pH 7.4 buffer. For the control, mix quickly in a cuvette 2 ml. hypoxanthine solution (6 × 10^-^5 M), 2 ml.
# Sequence of xanthine oxidase (P80457 whole entry): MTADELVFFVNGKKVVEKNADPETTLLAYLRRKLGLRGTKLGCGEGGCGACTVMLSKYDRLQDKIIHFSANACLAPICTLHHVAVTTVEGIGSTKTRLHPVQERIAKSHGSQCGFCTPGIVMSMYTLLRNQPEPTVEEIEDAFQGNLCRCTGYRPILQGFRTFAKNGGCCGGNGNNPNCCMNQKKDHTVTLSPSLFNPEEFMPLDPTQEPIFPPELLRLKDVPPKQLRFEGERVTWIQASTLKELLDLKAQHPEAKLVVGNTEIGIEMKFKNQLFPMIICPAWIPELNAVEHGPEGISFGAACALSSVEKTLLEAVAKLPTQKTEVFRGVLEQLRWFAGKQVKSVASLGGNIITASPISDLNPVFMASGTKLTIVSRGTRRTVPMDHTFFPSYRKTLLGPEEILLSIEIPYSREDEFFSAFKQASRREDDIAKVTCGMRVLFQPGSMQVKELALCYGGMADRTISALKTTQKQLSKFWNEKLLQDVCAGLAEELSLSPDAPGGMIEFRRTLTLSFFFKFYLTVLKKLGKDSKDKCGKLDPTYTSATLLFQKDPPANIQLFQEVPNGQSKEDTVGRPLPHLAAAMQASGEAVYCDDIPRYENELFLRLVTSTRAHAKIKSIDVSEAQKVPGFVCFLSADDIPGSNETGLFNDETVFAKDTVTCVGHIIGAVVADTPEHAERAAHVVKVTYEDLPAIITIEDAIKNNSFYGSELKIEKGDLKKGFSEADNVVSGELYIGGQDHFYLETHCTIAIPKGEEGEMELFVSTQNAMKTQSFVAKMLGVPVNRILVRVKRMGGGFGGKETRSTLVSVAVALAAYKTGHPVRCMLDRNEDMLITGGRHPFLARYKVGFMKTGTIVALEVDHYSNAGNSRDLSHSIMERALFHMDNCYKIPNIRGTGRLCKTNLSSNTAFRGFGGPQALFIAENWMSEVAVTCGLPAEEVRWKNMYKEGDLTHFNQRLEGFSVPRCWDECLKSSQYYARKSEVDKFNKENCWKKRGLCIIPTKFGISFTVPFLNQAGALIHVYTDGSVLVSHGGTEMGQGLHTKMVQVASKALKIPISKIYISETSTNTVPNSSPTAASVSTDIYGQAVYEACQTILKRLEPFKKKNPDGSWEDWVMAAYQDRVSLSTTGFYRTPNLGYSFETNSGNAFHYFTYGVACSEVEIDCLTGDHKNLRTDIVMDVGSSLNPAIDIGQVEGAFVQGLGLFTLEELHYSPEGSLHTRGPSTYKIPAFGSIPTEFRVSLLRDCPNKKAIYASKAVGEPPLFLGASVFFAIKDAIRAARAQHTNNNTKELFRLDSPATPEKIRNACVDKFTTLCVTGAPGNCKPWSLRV
row,inhibition at 2 µM [%],SMILES
1,52,"CN(C)S(=O)(=O)c1cc2c(cc1Cl)N=C(CCl)NS2(=O)=O [3-Chloromethyl-6-chloro-7-N,N-dimethylsulfamoyl-1,2,4-benzothiadiazine-1,1-dioxide]"

# Same assay, conditions: test compound 2 × 10^-5 M, hypoxanthine 6 × 10^-5 M solution, 1 minute
row,inhibition at 20 µM [%],SMILES
1,63,CCNS(=O)(=O)c1cc2c(cc1Cl)NC(C(Cl)(Cl)Cl)NS2(=O)=O (centres unmarked)
2,6,C=CCN(CC=C)S(=O)(=O)c1cc2c(cc1Cl)NC(C(Cl)(Cl)Cl)NS2(=O)=O (centres unmarked)
3,16,CNS(=O)(=O)c1cc2c(cc1Cl)NC(C(Cl)(Cl)Cl)NS2(=O)=O (centres unmarked)
4,75,CCN(CC)S(=O)(=O)c1cc2c(cc1Cl)N=C(CCl)NS2(=O)=O
5,18,CCN(CC)S(=O)(=O)c1cc2c(cc1Cl)N=C(C(Cl)Cl)NS2(=O)=O
6,78,CNS(=O)(=O)c1cc2c(cc1Cl)N=C(CCl)NS2(=O)=O
7,33,CCCN(CCC)S(=O)(=O)c1cc2c(c(Cl)c1Cl)N=C(CCl)NS2(=O)=O

# Continued, molecule first:
row,SMILES,inhibition at 20 µM [%]
1,NS(=O)(=O)c1cc2c(cc1Cl)NC(C(Cl)(Cl)Cl)NS2(=O)=O (centres unmarked),45
2,CCN(CC)S(=O)(=O)c1cc2c(cc1Cl)N=C(C(Cl)(Cl)Cl)NS2(=O)=O,3
3,CCNS(=O)(=O)c1cc2c(cc1Cl)N=C(C(Cl)Cl)NS2(=O)=O,6
4,C=CCN(CC=C)S(=O)(=O)c1cc2c(cc1Cl)N=C(CCl)NS2(=O)=O,53
5,CN(C)S(=O)(=O)c1cc2c(cc1Cl)N=C(C(C)(Cl)Cl)NS2(=O)=O,13
6,CN(C)S(=O)(=O)c1cc2c(cc1Cl)N=C(C(Cl)(Cl)Cl)NS2(=O)=O,5
7,CN(C)S(=O)(=O)c1cc2c(cc1Cl)N=C(C(Cl)Cl)NS2(=O)=O,11
8,NS(=O)(=O)c1cc2c(cc1Cl)N=C(CCl)NS2(=O)=O,24
9,CCCN(CCC)S(=O)(=O)c1cc2c(c(Cl)c1Cl)N=C(C(Cl)(Cl)Cl)NS2(=O)=O,26
10,CCCN(CCC)S(=O)(=O)c1cc2c(c(Cl)c1Cl)N=C(C(Cl)Cl)NS2(=O)=O,21
11,CCCN(CCC)S(=O)(=O)c1cc2c(cc1Cl)N=C(C(Cl)(Cl)Cl)NS2(=O)=O,14
12,CCCN(CCC)S(=O)(=O)c1cc2c(cc1Cl)N=C(CBr)NS2(=O)=O,30
13,CCCN(CCC)S(=O)(=O)c1cc2c(cc1Cl)N=C(CCl)NS2(=O)=O,69
14,CCCN(CCC)S(=O)(=O)c1cc2c(cc1Cl)N=C(C(Cl)Cl)NS2(=O)=O,12
15,"CCCN(CCC)S(=O)(=O)c1cc2c(cc1Cl)NC(C(Cl)(Cl)Cl)NS2(=O)=O (centres unmarked) [3-Trichloromethyl-6-chloro-7-N,N-di-n-propylsulfamoyl-3,4-dihydro-1,2,4-benzothiadiazine-1,1-dioxide]",6
